Assay results as given in patent publication US5610159A, “N-oxides of morpholine derivatives and their use as therapeutic agents” (Merck Sharp & Dohme Limited, priority 1995, dated 1997).

Test: stability of crystals on storage
Type: physicochemical
Experimental: Dimethylamine (approximately 10 ml) was condensed at -80° C. in a pressure tube and to this was added a solution of N-(4-azidobut-2-ynyl)-2-(R)-(1-(R)-(3,5-bis(trifluoromethyl)phenyl)ethoxy)-3-(S)-(4-fluorophenyl)morpholine (3.2 g) in dioxan (15 ml). The tube was sealed and the solution was heated at 90° C. for 16 h. The solution was evaporated to dryness and the residue chromatographed on silica gel (eluting with 5% methanol in dichloromethane containing 0.25% ammonia (SG. 0.88)) and the fractions containing the desired product were evaporated in vacuo to give the title compound. To a solution of this residue in diethyl ether was added 1M-HCl in methanol. The solution was evaporated to dryness and redissolved in diethyl ether to give crystals of the title compound hydrochloride salt m.p. 194°-198° C., [α]^22D+65.0° (c=0.5, H2 O).

Measured: stability of crystals

C[C@@H](O[C@H]1OCCN(Cc2nn[nH]c2CN(C)C)[C@H]1c1ccc(F)cc1)c1cc(C(F)(F)F)cc(C(F)(F)F)c1 [Description 9]
stable for at least five days: at 40° C. | at 40° C./75% relative humidity | at 80° C. | at 2000LUX
